In PubChem BioAssay (NCI):
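Five concentrations, 48 hours, 96-well plates. GI50 is the concentration that inhibits growth by half. TGI: concentration producing complete growth inhibition.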

Key:
Assay in all cases: inhibition of tumour cell growth, NCI panel, 48 h
RPMI-8226 leukemia = tested on: RPMI-8226 leukemia
SN12C renal = tested on: SN12C renal
HL-60(TB) leukemia = tested on: HL-60(TB) leukemia
K-562 leukemia = tested on: K-562 leukemia
HT29 colon = tested on: HT29 colon
SNB-19 CNS = tested on: SNB-19 CNS
CCRF-CEM leukemia = tested on: CCRF-CEM leukemia
MOLT-4 leukemia = tested on: MOLT-4 leukemia
OVCAR-4 ovarian = tested on: OVCAR-4 ovarian
MCF7 breast = tested on: MCF7 breast

SMILES	TGI (RPMI-8226 leukemia) [µM]	TGI (SN12C renal) [µM]	TGI (HL-60(TB) leukemia) [µM]	TGI (K-562 leukemia) [µM]	TGI (HT29 colon) [µM]	TGI (SNB-19 CNS) [µM]	TGI (CCRF-CEM leukemia) [µM]	TGI (MOLT-4 leukemia) [µM]	TGI (OVCAR-4 ovarian) [µM]	GI50 (RPMI-8226 leukemia) [µM]	GI50 (SN12C renal) [µM]	GI50 (HL-60(TB) leukemia) [µM]	GI50 (K-562 leukemia) [µM]	GI50 (HT29 colon) [µM]	GI50 (MCF7 breast) [µM]	TGI (MCF7 breast) [µM]	GI50 (SNB-19 CNS) [µM]	GI50 (CCRF-CEM leukemia) [µM]	GI50 (MOLT-4 leukemia) [µM]	GI50 (OVCAR-4 ovarian) [µM]
CCc1oc2ccc(OC)c3c2c1C=CC=C3	> 100	> 100	> 100	> 100	> 100	> 100	> 100	> 100	> 100											
CSc1ccc(C2=NN(C(=O)c3ccc(N)cc3)C(c3ccc(F)cc3)C2)cc1 (configuration not stated)	4.41	10.2	36.1	11.2	17.5	22.3	1.72	38.2	31.9	1.88	2.49	10.5	3.69	3.72	3.42	15.2	8.94	0.314	10.5	15
CC(C)(C)C[P+](C)(C)c1ccccc1	> 100	> 100	> 100	> 100	> 100	> 100	> 100	> 100	> 100											
COC(=O)C1=Cc2c(OC)cc(OC)c(OC)c2[C@H](c2cc(OC)c(OC)cc2OC)C1C(=O)OC (some centres not stated)	> 100	> 100	> 100	46.9	> 100	> 100	> 100	> 100	> 100											
CP(C)C.[Ag][I]	> 100	> 100	> 100	> 100	> 100	> 100	> 100	> 100	69.5											
CCCCCc1c(C)[nH]c(/C=c2\[nH]/c(=C3/C=c4ccccc4=N3)cc2OC)c1C	0.682	1.88	3.63			15.4	6.03	3.85	16.3	0.0614	0.0926	0.124			0.0425	1.43	0.226	0.0435	0.102	0.0687
N#CC12Cc3ccc4c(c3-c3cccc(c31)CCN2C(=O)c1ccccc1)OCO4 (configuration not stated)	> 100	> 100	> 100	> 100	> 100	> 100	> 100	> 100												
Cc1cc2nc3c4ccccc4n(CCN(C)C)c3nc2cc1C		10.5	6.26	10.7	4.26	12.3	13.6	9.9	8.94		1.08	1.99	1.55	0.76	1.41	7.14	2.33	1.99	0.555	2.55
CC1(C)CC2CC(C)(CN2c2ncnc3ccc(Br)cc23)C1 (configuration not stated)	13.5	21.9	3.48	6.79		30.5	39.8	11.2	27.1	2.58	10.3	1.38	1.62				14.4	6.61	0.134	14.1
Cc1cccc(N=C2NC(=O)C(CC(=O)Nc3ccc(Cl)cc3C)S2)c1 (configuration not stated)	> 100	> 100	> 100	> 100	> 100	> 100	> 100	> 100	> 100											
CCOC(=O)N1CCC(=O)C[C@@H]1C/C=C/P1(=O)O[C@H](c2ccccc2)C(C)N1C(C)C (some centres not stated)	> 100	> 100		> 100	> 100	> 100		> 100	> 100											
CC1=NN(c2ccccc2)C(=O)C1N=Nc1ccc(Br)c(C)c1 (configuration not stated)	> 100	> 100	> 100	> 100	> 100	> 100	> 100	> 100	> 100											
Cc1ccc(-c2cc(/C=N/O)on2)cc1	> 100	> 100	> 100		> 100	> 100	> 100	> 100	> 100	36.9	> 100	26.5		48.4	55.1	> 100	> 100	46.9	21.9	> 100
C[C@]12CCCC(=O)C1C[C@H](C(=O)O)CC2 (some centres not stated)	> 100	> 100	> 100	> 100	> 100	> 100	> 100	> 100	> 100											
O=[N+]([O-])c1cc(/C=N/NS(=O)(=O)c2ccc(F)cc2)c(O)c([N+](=O)[O-])c1	> 100	> 100	67.3	> 100	64.6	> 100	> 100	88.6	> 100											
CC12OC3CC(O1)C1(C=O)C4CCC5(C)C(c6ccc(=O)oc6)CCC5(O)C4CCC1(C3)O2 (configuration not stated)	0.304		0.474	> 100	1.3	1.78	1.2	0.244	0.308											
O=C1CCC(=O)C(C(=O)CCC(=O)Nc2cccc(Cl)c2)C1 (configuration not stated)	> 100	> 100	> 100	> 100	> 100	> 100	> 100	> 100												
CN(C)CCOc1nc2ccccc2c2c1-c1ccc(Cl)cc1C2=O	2.35	2.36	3.37		1.63	2.14	2.46	1.51	4.04	0.617	0.389	0.933		0.453	0.324	1.39	0.46	0.363	0.302	0.927
NC(=O)CCC(NC(=O)C(F)(F)F)C(=O)O (configuration not stated)	> 100	> 100		> 100	> 100	> 100	> 100	> 100	> 100											
